{
  "source": "paper PMC5609913",
  "about": "“Structure based design, synthesis and activity studies of small hybrid molecules as HDAC and G9a dual inhibitors” (Oncotarget, 2017)",
  "key": {"[1]": {"molecular_target": "T1, Mouse histone methyltransferase G9a (969-1263) (Mus musculus, UniProt Q9Z148)", "T1 construct": "The 6His-sumo mG9a (969-1263) protein was purified using the following procedure; 6His-sumo (N, cleaved yes); made in house; host or cells: Escherichia coli BL21 (DE3)", "T1 sequence (Q9Z148 969-1263)": "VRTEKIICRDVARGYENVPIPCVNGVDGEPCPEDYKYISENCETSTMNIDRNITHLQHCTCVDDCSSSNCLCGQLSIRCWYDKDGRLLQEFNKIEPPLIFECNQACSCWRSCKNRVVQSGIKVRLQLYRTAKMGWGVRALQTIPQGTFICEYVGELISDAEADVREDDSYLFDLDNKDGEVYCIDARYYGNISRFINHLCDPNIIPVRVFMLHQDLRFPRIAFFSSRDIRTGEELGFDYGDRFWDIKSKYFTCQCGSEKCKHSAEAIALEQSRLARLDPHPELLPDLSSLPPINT", "experiment": "MALDI-TOF methylation study of G9a enzymatic activity (H3 peptide, SAM)", "format": "biochemical", "settings": "Supplementary Table 1; inhibitor 5 μM, 30 min; average of 3 values", "method": "Figure 3 compounds were synthesized from the commercially available starting material 1. An initial displacement reaction using a primary amine was used to introduce the C4 selective substitution, with the second displacement to introduce the linker at the C2 position following the microwave assisted reaction previously reported. Boc-protected ethylene diamine was treated with compound 2 at 160°C in a microwave for 10 min to yield product 3 with excellent yield. Afterward, the amine 3 was deprotected with TFA/DCM, and the free amine was treated with corresponding monomethyl esters (carbon chain 2-6) in the presence of coupling reagent EDCI and HOBt for about 8 hours to produce mono methyl ester substituted at the C2 position. The ester compounds further treated with hydroxylamine in water to get the corresponding hydroxamic acid derivatives, which were purified using reverse phase flash chromatography to obtain compounds 4-7 and 4a-7a in good yield. Synthesis of compounds in Figure 4 requires the C6 demethoxy core, and this was synthesized according to the reported procedure to yield 10 [45]. […] Compounds with the HDAC pharmacophore at the C4 position (Figure 2B) were synthesized from the starting material 1. […] A parallel synthesis and testing strategy were used in establishing the primary SAR, with the clear rationalization of the structure and activity at each stage we could reduce the synthetic targets. Initially, we evaluated the G9a potential after the introduction of HDAC pharmacophore. A biochemical assay using MALDI-TOF was used to visualize the effects of the synthesized compounds on G9a enzymatic activity, we carried out a biochemical reaction involving target enzyme G9a, methyl donor SAM and substrate H3 peptide at a concentration of 400 nM, 10 μM and 5 μM respectively.\nMouse histone methyltransferase G9a (969-1263) cDNA was amplified from the cDNA of BALB/c mouse thymus, and the fragment was sub-cloned into a vector with a 6His-sumo tag. The mouse G9a (mG9a) was expressed in Escherichia coli BL21 (DE3) by the addition of 1 mM isopropyl-1-thio-D-galactopyranoside (IPTG) and incubated overnight at 16°C.\nThe in vitro inhibition of G9a by the synthesized compounds were measured by MALDI-TOF mass spectrum (Bruker MALDI TOF/TOF Analyzer). 400 nM purified G9a, 5 μM synthesized histone H3 (1-21) and 10 μM non-radioactive S-adenosyl methionine (Sigma) were added in reaction buffer (50 mM HEPES pH 8.0, 5 μg/ml BSA and 0.1% β-Mercaptoethanol) with or without inhibitors (5 μM). The reaction was incubated at room temperature for 30 min, and stopped by TFA. 1 μl of the sample was mixed with CHCA matrix and m/z peaks were obtained at reflection positive mode. The results of mass spectrum were analyzed using the Bruker flex analysis software, a detailed description of data processing is provided as supplementary information (S3).\n[…]\nMALDI spectrums were collected using Bruker flex % conversion to product is also C, from this to get the control software and analyzed by flex analysis. After %maximal activity (%MA), C was compared to the % labelling each cluster peaks of H3K9Me0, H3K9Me1 conversion when no inhibitor was used (D). and H3K9Me2 for all of the tested concentrations, area Finally % inhibition was found by subtracting under the cluster (AUC) were extracted by using the same %MA from 100 […]\nflex analysis software. % abundance of each peak was Example: % methylation levels and % inhibition calculated by following formula, when used 5 μM compound 14\nA = % Abundance of (H3K9Me0) = area of A = 13.09\nB = % Abundance of (H3K9Me1) = area of % conversion when no inhibitor was used D = 84.43 H3K9Me1/ (area of H3K9Me0+area of H3K9Me1 + area (average of six measurements) […]"}, "MDA-MB-231 cells": {"tested_on": "MDA-MB-231 cells", "experiment": "Cell anti-proliferation / toxicity assay (CCK-8), MDA-MB-231", "format": "cell-based", "settings": "Homo sapiens, MDA-MB-231; Supplementary Table 4; 72 h, CCK-8; >100 = not reached at 100 μM; read-out: EC50 MDA-MB-231", "method": "Initial tests designed around assessing whether a synergistic effect would be observed in real when a combination of G9a inhibitor and HDAC inhibitor used in conjunction.\nCell anti-proliferation assays were performed to determine the toxicity of these inhibitors. Several cell lines (MDA-MB-231, MCF-7 and A549) were incubated and then treated with varying concentrations of the inhibitors for 72 h, respectively. […] These compounds were further evaluated against the control cell line HEK293 to test their toxicity with a non-cancerous cell line.\nA549, MDA-MB-231, MCF-7 and HEK293 cells were seeded at 8000-10000 cells (100 μl) in white 96-well plates and pre-incubate the plate for 24 h under standard cell culture conditions, respectively. And then the cells were exposed to the different inhibitors with various concentrations for 72 h. Finally, 10 μl of CCK-8 kit solution was added to each well and incubated for 3-4 hours under standard cell culture conditions, and the 96 well plates were measured the absorbance at 450 nm using Perkin–Elmer Wallac Victor ^3V 1420 multi label plate reader (Perkin–Elmer, Wellesley, USA). EC50s were calculated using GraphPad Prizm statistical package with sigmoidal variable slope dose response curve fit."}, "HDAC": {"tested_on": "HDAC", "experiment": "Homogeneous cellular histone deacetylase assay, K562", "format": "cell-based, human", "settings": "Supplementary Table 2; NA = not active up to highest concentration tested (100 μM); >100 = IC50 not reached at 100 μM; read-out: IC50-HDAC K562", "method": "The enzymatic activity of HDAC was measured in intact cells using the homogeneous cellular assay method. A cell-permeable peptide Boc-K(Ac)-AMC used as the HDAC substrate, after deacetylation it is cleaved by trypsin to release the fluorescent 7-amino-4-methylcoumarin (AMC) and further quantified.\nThe manual assay was developed by Thomas's group. […] After 24 h, 9 μl inhibitors with different concentration were added to the HeLa cells and incubation was continued for 3 h under cell culture conditions. After this treatment period, 10 μl of a 2 mM stock solution of the substrate Boc-K(Ac)-AMC was added into the 96 well plates with Hela cells and inhibitors. […] A549 and K562 cell lines used the same method, respectively. IC50s were calculated using GraphPad Prizm statistical package with sigmoidal variable slope dose response curve fit."}},
  "data": [
    {"compound": "COc1ccc2c(NCCNC(=O)CCCCCC(=O)NO)nc(N3CCCN(C)CC3)nc2c1", "note": "[Compound 22, N1-hydroxy-N7-(2-((7-methoxy-2-(4-methyl-1,4-diazepan-1-yl)quinazolin-4-yl)amino)ethyl)heptanediamide]", "values": [
      {"measurement": "inhibition at 5 µM", "setting": "[1]", "result": "40.3 ± 15.3", "unit": "%"},
      {"measurement": "EC50", "setting": "MDA-MB-231 cells", "result": "> 100", "unit": "µM"},
      {"measurement": "IC50", "setting": "HDAC", "result": "> 100", "unit": "µM"}
    ]}
  ]
}
